Test results reported in patent US20240368049A1, “ENHANCED PHYTOREMEDIATION FROM BIOAVAILABILITY OF PER- AND POLYFLUOROALKYL SUBSTANCES IN CONTAMINATED SOIL” (The Research Foundation for the State University of New York, priority 2023, published 2024).

Experiments:
[1] = SPLP (EPA method 1312) leachability of PFAS in biosolids amended soil; assay type: physicochemical; details: for percentage of SPLP leachable PFAS in biosolids amended soil: without a sorbent, Day-80, pH 4.2
Description: PFAS in the freeze-dried timothy-grass shoots were extracted by MTBE-NaOH according to a previously developed method. Before extraction, each sample for extraction was spiked with 10 ng of 13C2-PFHxA as the surrogate for determining the extraction efficiency. EPA method 1312 (Synthetic Precipitation Leaching Procedure, SPLP) was performed on the biosolids amended soil after drying to determine the leachability of PFAS. Briefly, 20 mL of H2SO4/HNO3 reagent (60/40 wt/wt.) at pH=4.2 were added to the soil sample. The soil with the H2SO4/HNO3 reagent was then vortexed for 30s and shaken on an end over end mixer overnight. After centrifugation at 3500 g for 30 min, the supernatant was collected and subject to solid phase extraction (SPE) using HyperSep C18 cartridges (Thermo Scientific, Waltham, MA). The SPLP leachable PFAS on the C18 cartridges were eluted with 2 mL of methanol, followed by 2 mL of 0.1% NH40H amended methanol. The SPLP leachable PFAS in clean soil without biosolids amendment were analyzed as well. PFAS in the final plant extracts and SPLP leachates were quantified using a 1290 Infinity II LC system coupled with a 6470 Triple Quad Mass Spectrometer (LC-MS/MS, Agilent Technologies, Santa Clara, CA, USA).
FIG. 3 is a series of graphs 40 of percentages of leachable PFAS in biosolids-amended soil treated by different sorbents on Day-80 (n=3). Different letters represent significant differences among the treatments (p<0.05). […] Without a sorbent, almost 100% of leaching of PFHxA 42, PFHpA 44 and PFOA 46 was observed. Similarly to PFAS uptake by the shoots, a chain length effect was visible: the shorter the carbon chain of PFAS, the higher the leachability. […] Compared to PFAS concentrations in the shoots (FIG. 1), there was no positive correlation between acidic water leachable PFAS and the extent of shoot uptake for treatment with biochar at both doses and RemBind at the dose of 0.2%. Thus, results from SPLP at pH=4.2 for sites east of the Mississippi River may not be able to predict bioavailable PFAS to the studied grass. The SPLP is an established and widely adopted EPA method for investigating leaching of organic contaminants in soil. One should note that the acidic water used in the leaching procedure may actually decrease PFAS leaching due to the acidic nature of PFAAs. But since the focus here was to evaluate the effect of different sorbents toward stabilizing PFAS in soil amended by biosolids, the SPLP served our purpose well.

[2] = system: timothy-grass (Phleum pratense); assay: chlorophyll content of timothy-grass shoots; assay type: in vivo; details: mobilization treatment with SDS
Description: Timothy-grass seeds were purchased from OrOlam LLC (South Miami, FL). One gram of seeds was sown evenly in each tank containing the prepared biosolids amended soil. Enough water was then added to each tank to reach 100% of field capacity. The plants were cultivated in a greenhouse and watered every day. The timothy-grass started germinating on the 5th day after sowing. On Day-40 after seed germination, the above-ground shoots of the grass in each tank were cut and rinsed thoroughly using deionized water. Around 1 g of the plant tissues from each treatment was used for chlorophyll extraction and quantification. The remaining plant shoots were freeze-dried at −37° C. for 48 h and subject to PFAS extraction and analysis. The plants after cutting were kept under the same growth condition. On Day-80 after seed germination or day-40 after the first cut, the plant shoots were removed again and subject to chlorophyll and PFAS analysis. […]
On Day-40 and Day-80 after seed germination, 100 mg of fresh grass leaves were collected and used to quantify chlorophyll content. […] After 48 h, the chlorophyll concentration in the solvent was determined using a UV-Vis spectrophotometer (GENESYS 10S, Thermo Fisher Scientific, altham, MA, USA). The absorbance was read at 664 and 647 nm and used to calculate chlorophyll a and b and total chlorophyll content according to these equations: […]

[3] = system: timothy-grass (Phleum pratense); assay: uptake of PFAS by timothy-grass shoots grown in biosolids-amended soil treated by a sorbent or SDS; assay type: in vivo
From the text: The method uses the addition of a mobilizing reagent, at a predetermined dose as described herein, to amend the soil around a root system of one or more plants. The supplementing of the amended soil with a stabilizing reagent at a predetermined dose, as also defined below. In one embodiment, the preparation of biosolids amended soil uses a sandy loam soil used in this study (pH=7.56), which was collected from a local farm in Albany County, New York. The soil was passed through a 2-mm sieve before use. The contents of natural organic matter and total organic carbon of the sieved soil were 4.82±0.12% and 2.44±0.45%, respectively. The sieved soil was mixed with vermiculite in a 1:1 vol ratio for increasing water retention of the soil and improving soil aeration. Then, the processed soil for plant cultivation was distributed to 7-quart polypropylene containers (14.375″L×8.25″W×6″H). Each container had 1.3 kg of dry soil.
The biosolids after anaerobic digestion of sludge were collected from a nearby wastewater treatment plant close to University at Albany. The total solid and total organic carbon of the biosolids were 24.16±0.21% and 28.64±0.28%, respectively. […]
Timothy-grass seeds were purchased from OrOlam LLC (South Miami, FL). […] Around 1 g of the plant tissues from each treatment was used for chlorophyll extraction and quantification. […]

Compound | percentage of SPLP leachable PFAS in biosolids amended soil [1] | effect on chlorophyll content in timothy-grass [2] | effect on uptake of PFAS by the shoots ([3]; SDS 100 mg/kg, Day-40, exceptions PFOA and PFOS) | effect on ΣPFAS uptake by the shoots ([3]; SDS, all three doses (10, 50, 100 mg/kg), Day-80) | effect on acidic water leachable PFAS in biosolids amended soil ([1]; SDS at a dose up to 100 mg/kg)
O=C(O)C(F)(F)C(F)(F)C(F)(F)C(F)(F)C(F)(F)C(F)(F)C(F)(F)F [PFOA, perfluorooctanoic acid] | ~100% | – | – | – | –
O=C(O)C(F)(F)C(F)(F)C(F)(F)C(F)(F)C(F)(F)C(F)(F)F [PFHpA, perfluoroheptanoic acid] | ~100% | – | – | – | –
O=C(O)C(F)(F)C(F)(F)C(F)(F)C(F)(F)C(F)(F)F [PFHxA, perfluorohexanoic acid] | ~100% | – | – | – | –
CCCCCCCCCCCCOS(=O)(=O)[O-].[Na+] [SDS, sodium dodecyl sulphate] | – | did not change the chlorophyll content | significantly higher uptake of PFAS | significantly higher PFAS uptake | did not significantly increase
